# Like-named read-outs stand apart in the source and are kept apart here.
# Test system: Multidrug resistant Acinetobacter Baumannii, (MRAB)
# Test: microbe, parasite or virus in culture
smiles,measurement,setting,value
"NCC[C@H](O)C(=O)N[C@@H]1C[C@H](N)[C@@H](O[C@H]2O[C@H](CN)[C@@H](O)[C@H](O)[C@H]2O)[C@H](O)[C@H]1O[C@H]1O[C@H](CO)[C@@H](O)[C@H](N)[C@H]1O [AMI, Amikacin]",viability at 4 µg/mL,"read-out: % bacterial viability, MRAB 1 014754 Urine, AMI 4 μg/ml",35.9%
same,viability at 12 µg/mL,"read-out: % bacterial viability, MRAB 1 014754 Urine, AMI 12 μg/ml",24.5%
same,viability at 20 µg/mL,"read-out: % bacterial viability, MRAB 1 014754 Urine, AMI 20 μg/ml",14.7%
same,viability at 4 µg/mL,"read-out: % bacterial viability, MRAB 2 014801 Catheter, AMI 4 μg/ml",36%
same,viability at 12 µg/mL,"read-out: % bacterial viability, MRAB 2 014801 Catheter, AMI 12 μg/ml",14.1%
same,viability at 20 µg/mL,"read-out: % bacterial viability, MRAB 2 014801 Catheter, AMI 20 μg/ml",8.36%
same,viability at 4 µg/mL,"read-out: % bacterial viability, MRAB 3 015069 Skin, AMI 4 μg/ml",66.6%
same,viability at 12 µg/mL,"read-out: % bacterial viability, MRAB 3 015069 Skin, AMI 12 μg/ml",48.6%
same,viability at 20 µg/mL,"read-out: % bacterial viability, MRAB 3 015069 Skin, AMI 20 μg/ml",41.7%
same,viability at 4 µg/mL,"read-out: % bacterial viability, MRAB 4 015095 Hospital Environ, AMI 4 μg/ml",66.4%
same,viability at 12 µg/mL,"read-out: % bacterial viability, MRAB 4 015095 Hospital Environ, AMI 12 μg/ml",42.9%
same,viability at 20 µg/mL,"read-out: % bacterial viability, MRAB 4 015095 Hospital Environ, AMI 20 μg/ml",33.9%
same,viability at 4 µg/mL,"read-out: % bacterial viability, MRAB 5 015103 Hospital Environ, AMI 4 μg/ml",65.2%
same,viability at 12 µg/mL,"read-out: % bacterial viability, MRAB 5 015103 Hospital Environ, AMI 12 μg/ml",26.9%
same,viability at 20 µg/mL,"read-out: % bacterial viability, MRAB 5 015103 Hospital Environ, AMI 20 μg/ml",24.6%
same,viability at 4 µg/mL,"read-out: % bacterial viability, MRAB 12 016419 Catheter, AMI 4 μg/ml",49.7%
same,viability at 12 µg/mL,"read-out: % bacterial viability, MRAB 12 016419 Catheter, AMI 12 μg/ml",22.7%
same,viability at 20 µg/mL,"read-out: % bacterial viability, MRAB 12 016419 Catheter, AMI 20 μg/ml",19.8%
